Experimental data published in patent publication US11667602B2, “Compounds and their use” (AstraZeneca AB, priority 2020, dated 2023).
In brackets after ≈: the same amount, converted by molar mass. Read-outs that look alike come from different tables or passages of the source.

Key:
[1] = Human Hepatocyte Stability (Test D); assay type: in vitro ADME; details: human, cryopreserved pooled human hepatocytes (LiverPool 10-Donor), geometric mean if run multiple times
Summary of the method: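 Pooled 10-donor cryopreserved human hepatocytes (≥80% viable) in L-15 medium at 0.25×10^6 cells per 0.25 mL well. Compound added from 100 μM acetonitrile solution; incubated at 37 °C with shaking, acetonitrile-quenched, LC-MS analysed. Clint (μL/min/10^6 cells) from ln % parent vs time slope; geometric mean of repeat runs.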

[2] = Human Liver Microsomal Stability (Test C); assay type: in vitro ADME; details: human, liver microsomes
Summary of the method: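 Human liver microsome incubation per the Wernevik et al. integrated DMPK panel protocol. Intrinsic clearance reported as CLint in μl/min/mg protein, averaged arithmetically over repeat runs.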

human RXFP1 = biological target: T1, human RXFP1 (Homo sapiens, UniProt Q9HBX9); assay: RXFP1 Hu cAMP (Test A); assay type: cell-based; design: expressed in transfected cells; host or cells: Jump-In T-REx CHO-K1 cells (ThermoFisher), induced with 10 ng/ml doxycycline for 24 h
T1 sequence (Q9HBX9 1-757): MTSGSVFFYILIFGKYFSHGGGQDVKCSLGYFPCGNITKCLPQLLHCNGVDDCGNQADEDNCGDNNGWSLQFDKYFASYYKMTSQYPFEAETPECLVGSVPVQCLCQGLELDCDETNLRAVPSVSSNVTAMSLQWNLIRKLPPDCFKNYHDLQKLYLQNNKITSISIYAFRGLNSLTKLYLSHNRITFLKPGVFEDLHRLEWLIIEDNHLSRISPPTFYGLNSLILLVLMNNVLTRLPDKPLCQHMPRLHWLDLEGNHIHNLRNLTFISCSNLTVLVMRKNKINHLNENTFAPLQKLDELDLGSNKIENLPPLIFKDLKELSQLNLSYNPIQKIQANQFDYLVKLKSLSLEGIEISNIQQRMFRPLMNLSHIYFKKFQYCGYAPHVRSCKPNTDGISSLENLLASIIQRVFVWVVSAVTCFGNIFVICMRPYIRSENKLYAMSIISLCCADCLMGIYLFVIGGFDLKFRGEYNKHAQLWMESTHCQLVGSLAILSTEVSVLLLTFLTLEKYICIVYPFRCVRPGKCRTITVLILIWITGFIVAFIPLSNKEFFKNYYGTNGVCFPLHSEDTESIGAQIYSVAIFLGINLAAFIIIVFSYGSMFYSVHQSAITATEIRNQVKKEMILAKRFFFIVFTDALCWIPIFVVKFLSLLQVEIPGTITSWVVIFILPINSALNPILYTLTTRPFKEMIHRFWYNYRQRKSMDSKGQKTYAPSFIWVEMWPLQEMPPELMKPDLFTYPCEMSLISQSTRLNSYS
Summary of the method: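 Doxycycline-induced (10 ng/ml, 24 h) CHO-K1 cells stably expressing human RXFP1; cAMP read by competitive HTRF after 2 h at room temperature, with 0.5 mM IBMX final.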

Solubility (Test F) = assay type: physicochemical; details: arithmetic mean if run multiple times
Experimental: The assay was conducted according to the Solubility Assay described in pages 164-167 of Wernevik, J. et al., “A Fully Integrated Assay Panel for Early Drug Metabolism and Pharmacokinetics Profiling”, Assay and Drug Development Technologies, 2020, 18(4), 157-179. Data are reported in Table 36 as solubility ([…]. Where the assay was run multiple times for the same compound, the arithmetic mean is reported.

[3] = Human Plasma Protein Binding (Test B); assay type: in vitro ADME; details: fraction unbound (fu)
Summary of the method: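 Human plasma protein binding run per the published Wernevik et al. (2020) integrated DMPK panel protocol. Values are fraction unbound (fu, % free); repeat runs averaged arithmetically.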

[4] = Rat Hepatocyte Stability (Test E); assay type: in vitro ADME; details: rat, hepatocytes, geometric mean if run multiple times
Summary of the method: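 Run per the published AstraZeneca-type rat hepatocyte stability protocol (Wernevik et al. panel). Values are mean intrinsic clearance, Clint in μl/min/10^6 cells; geometric mean used for repeated runs.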

[5] = RXFP1 Hu cAMP, read-out: Test A EC50

Compound: COc1cc(F)c(-c2cnn(CCC(=O)O)c2)cc1C(=O)N[C@@H]1[C@H]2CC[C@H](C2)[C@@H]1C(=O)Nc1cccc(S(=O)(=O)C(F)(F)F)c1 [Example 255]
- hepatocyte CLint at 1 µM [1]: 13 µL/min/1e6 cells
- microsomal CLint [2]: 26 µL/min/mg
- Test A Sinf (human RXFP1; RXFP1 Hu cAMP): 101%
- EC50 (human RXFP1; [5]): 550 nM
- solubility (Solubility (Test F)): 1000 µM (≈ 653 µg/mL)
- Test B Human Plasma Protein Binding (% free) [3]: 2 % free
- hepatocyte CLint [4]: 12 µL/min/1e6 cells

Compound: COc1cc(F)c(-c2ccc(CCC(=O)O)nc2)cc1C(=O)N[C@@H]1[C@H]2CC[C@H](C2)[C@@H]1C(=O)Nc1cccc(S(=O)(=O)C(F)(F)F)c1 [Example 258, 3-(5-(2-Fluoro-4-methoxy-5-(((1S,2R,3S,4R)-3-((3-((trifluoromethyl)sulfonyl)phenyl)carbamoyl)bicyclo[2.2.1]heptan-2-yl)carbamoyl)phenyl)pyridin-2-yl)propanoic acid]
- hepatocyte CLint at 1 µM [1]: 30 µL/min/1e6 cells
- microsomal CLint [2]: 65 µL/min/mg
- Test A Sinf (human RXFP1; RXFP1 Hu cAMP): 106%
- EC50 (human RXFP1; [5]): 120 nM
- solubility (Solubility (Test F)): > 1000 µM
- Test B Human Plasma Protein Binding (% free) [3]: 1.7 % free
- hepatocyte CLint [4]: 35 µL/min/1e6 cells

Compound: COc1cc(F)c(-c2ccc(C(N)=O)cc2)cc1C(=O)N[C@H]1[C@@H](C(=O)Nc2cccc(S(=O)(=O)C(F)(F)F)c2)[C@@H]2C=C[C@H]1C2 [Example 270, 6-Fluoro-4-methoxy-N3-((1R,2R,3S,4S)-3-((3-((trifluoromethyl)sulfonyl)phenyl)carbamoyl)bicyclo[2.2.1]hept-5-en-2-yl)-[1,1′-biphenyl]-3,4′-dicarboxamide]
- hepatocyte CLint at 1 µM [1]: 32 µL/min/1e6 cells
- microsomal CLint [2]: 120 µL/min/mg
- Test A Sinf (human RXFP1; RXFP1 Hu cAMP): 107%
- EC50 (human RXFP1; [5]): 120 nM
- solubility (Solubility (Test F)): 2 µM (≈ 1.26 µg/mL)
- Test B Human Plasma Protein Binding (% free) [3]: <0.26 % free
- hepatocyte CLint [4]: 38 µL/min/1e6 cells

Compound: COc1cc(F)c(-c2cnn(CC(=O)O)c2)cc1C(=O)N[C@H]1[C@@H](C(=O)Nc2cccc(S(=O)(=O)C(F)(F)F)c2)[C@@H]2C=C[C@H]1C2 [Example 271, 2-(4-(2-Fluoro-4-methoxy-5-(((1R,2R,3S,4S)-3-((3-((trifluoromethyl)sulfonyl)phenyl)carbamoyl)bicyclo[2.2.1]hept-5-en-2-yl)carbamoyl)phenyl)-1H-pyrazol-1-yl)acetic acid]
- hepatocyte CLint at 1 µM [1]: 3.7 µL/min/1e6 cells
- microsomal CLint [2]: < 3 µL/min/mg
- Test A Sinf (human RXFP1; RXFP1 Hu cAMP): 98%
- solubility (Solubility (Test F)): 920 µM (≈ 586 µg/mL)
- Test B Human Plasma Protein Binding (% free) [3]: 0.81 % free
- hepatocyte CLint [4]: 7 µL/min/1e6 cells

Compound: COc1cc(F)c(-c2ccc(C[C@H](C(=O)O)N(C)C)cc2)cc1C(=O)N[C@@H]1[C@H]2CC[C@H](C2)[C@@H]1C(=O)Nc1cccc(S(=O)(=O)C(F)(F)F)c1 [Example 292, (R)-2-(Dimethylamino)-3-(2′-fluoro-4′-methoxy-5′-(((1S,2R,3S,4R)-3-((3-((trifluoromethyl)sulfonyl)phenyl)carbamoyl)bicyclo[2.2.1]heptan-2-yl)carbamoyl)-[1,1′-biphenyl]-4-yl)propanoic acid]
- hepatocyte CLint at 1 µM [1]: 4.6 µL/min/1e6 cells
- microsomal CLint [2]: 24 µL/min/mg
- Test A Sinf (human RXFP1; RXFP1 Hu cAMP): 110%
- EC50 (human RXFP1; [5]): 77 nM
- solubility (Solubility (Test F)): 18 µM (≈ 12.7 µg/mL)
- Test B Human Plasma Protein Binding (% free) [3]: 1.2 % free
- hepatocyte CLint [4]: 14 µL/min/1e6 cells

Compound: COc1cc(F)c(-c2ccc(CC(=O)O)cc2)cc1C(=O)N[C@@H]1CCC[C@@H]1C(=O)Nc1cccc(S(=O)(=O)C(F)(F)F)c1 [Example 320]
- hepatocyte CLint at 1 µM [1]: 11 µL/min/1e6 cells
- microsomal CLint [2]: 14 µL/min/mg
- Test A Sinf (human RXFP1; RXFP1 Hu cAMP): 119%
- EC50 (human RXFP1; [5]): 460 nM
- solubility (Solubility (Test F)): > 1000 µM
- Test B Human Plasma Protein Binding (% free) [3]: 0.67 % free
- hepatocyte CLint [4]: 9.6 µL/min/1e6 cells

Compound: COc1cc(F)c(-c2ncc(CCC(=O)O)cn2)cc1C(=O)N[C@@H]1[C@H]2CC[C@H](C2)[C@@H]1C(=O)Nc1cccc(S(=O)(=O)C(F)(F)F)c1 [Example 323, 3-(2-(2-Fluoro-4-methoxy-5-(((1S,2R,3S,4R)-3-((3-((trifluoromethyl)sulfonyl)phenyl)carbamoyl)bicyclo[2.2.1]heptan-2-yl)carbamoyl)phenyl)pyrimidin-5-yl)propanoic acid]
- hepatocyte CLint at 1 µM [1]: 16 µL/min/1e6 cells
- microsomal CLint [2]: 58 µL/min/mg
- Test A Sinf (human RXFP1; RXFP1 Hu cAMP): 108%
- EC50 (human RXFP1; [5]): 420 nM
- solubility (Solubility (Test F)): 850 µM (≈ 565 µg/mL)
- Test B Human Plasma Protein Binding (% free) [3]: 9.3 % free
- hepatocyte CLint [4]: 21 µL/min/1e6 cells

Compound: COc1cc(C#N)c(-c2ccc(OCC(=O)O)cc2)cc1C(=O)N[C@@H]1[C@H]2CC[C@H](C2)[C@@H]1C(=O)Nc1cccc(S(=O)(=O)C(F)(F)F)c1 [Example 329, 2-((2′-Cyano-4′-methoxy-5′-(((1S,2R,3S,4R)-3-((3-((trifluoromethyl)sulfonyl)phenyl)carbamoyl)bicyclo[2.2.1]heptan-2-yl)carbamoyl)-[1,1′-biphenyl]-4-yl)oxy)acetic acid]
- hepatocyte CLint at 1 µM [1]: 5.6 µL/min/1e6 cells
- microsomal CLint [2]: 30 µL/min/mg
- Test A Sinf (human RXFP1; RXFP1 Hu cAMP): 108%
- EC50 (human RXFP1; [5]): 140 nM
- solubility (Solubility (Test F)): 1000 µM (≈ 672 µg/mL)
- Test B Human Plasma Protein Binding (% free) [3]: 0.81 % free
- hepatocyte CLint [4]: 26 µL/min/1e6 cells

Compound: COc1cc(F)c(O[C@H]2CC[C@@](C)(C(=O)O)CC2)cc1C(=O)N[C@@H]1CCC[C@]1(F)C(=O)Nc1cccc(S(=O)(=O)C(F)(F)F)c1 [Example 355]
- hepatocyte CLint at 1 µM [1]: 8 µL/min/1e6 cells
- microsomal CLint [2]: 32 µL/min/mg
- Test A Sinf (human RXFP1; RXFP1 Hu cAMP): 114%
- EC50 (human RXFP1; [5]): 37 nM
- solubility (Solubility (Test F)): 430 µM (≈ 285 µg/mL)
- Test B Human Plasma Protein Binding (% free) [3]: 2.1 % free
- hepatocyte CLint [4]: 19 µL/min/1e6 cells

Compound: COc1cc(C#N)c(O[C@H]2CC[C@@](C)(C(=O)O)CC2)cc1C(=O)N[C@@H]1CCC[C@@H]1C(=O)NCC1(C)CCC1 [Example 360]
- hepatocyte CLint at 1 µM [1]: 3.6 µL/min/1e6 cells
- microsomal CLint [2]: 8.4 µL/min/mg
- Test A Sinf (human RXFP1; RXFP1 Hu cAMP): 101%
- EC50 (human RXFP1; [5]): 100 nM
- solubility (Solubility (Test F)): > 1000 µM
- Test B Human Plasma Protein Binding (% free) [3]: 15 % free
- hepatocyte CLint [4]: 17 µL/min/1e6 cells

Compound: COc1cc(F)c(O[C@H]2CC[C@@](CO)(C(=O)O)CC2)cc1C(=O)N[C@@H]1[C@H]2CC[C@H](C2)[C@@H]1C(=O)NCC1(C(F)(F)F)CCC1 [Example 365]
- hepatocyte CLint at 1 µM [1]: 9.3 µL/min/1e6 cells
- microsomal CLint [2]: 14 µL/min/mg
- Test A Sinf (human RXFP1; RXFP1 Hu cAMP): 113%
- EC50 (human RXFP1; [5]): 57 nM
- solubility (Solubility (Test F)): 980 µM (≈ 602 µg/mL)
- Test B Human Plasma Protein Binding (% free) [3]: 7.8 % free
- hepatocyte CLint [4]: 15 µL/min/1e6 cells

Compound: COc1c(F)cc(O[C@H]2CC[C@@](C)(C(=O)O)CC2)cc1C(=O)N[C@@H]1[C@H]2CC[C@H](C2)[C@@H]1C(=O)NCC1(C)CCC1 [Example 374]
- hepatocyte CLint at 1 µM [1]: 5.3 µL/min/1e6 cells
- microsomal CLint [2]: 44 µL/min/mg
- EC50 (human RXFP1; Test A EC50, RXFP1 Hu cAMP): 44 nM
- solubility (Solubility (Test F)): 680 µM (≈ 370 µg/mL)
- Test B Human Plasma Protein Binding (% free) [3]: 2.9 % free
- hepatocyte CLint [4]: 21 µL/min/1e6 cells
